PubChem BioAssay (NCI)
Values joined by “and” are separate entries in the source; they are usually repeats but may differ in a detail not shown here. Identical values can stand only once.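 Cells were grown in 96-well plates and exposed to each compound for 48 hours at five concentrations; endpoints were interpolated linearly between bracketing concentrations, or set to the highest concentration if not reached. Here, GI50 denotes the concentration required for 50% inhibition of growth. TGI denotes the concentration required for complete inhibition of growth.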

Experiments:
Assay in all cases: NCI anticancer screen, dose series, 48 h
[1] = tested on: DU-145 prostate
[2] = tested on: MDA-MB-231 breast
[3] = tested on: DLD-1 colon
[4] = tested on: HOP-18 NSCLC
[5] = tested on: DMS 273 small cell lung
[6] = tested on: LXFL 529 NSCLC
[7] = tested on: NCI/ADR-RES ovarian
[8] = tested on: SNB-78 CNS
[9] = tested on: T-47D breast

CN[C@@H]1C[C@H]2O[C@@](C)([C@@H]1OC)n1c3ccccc3c3c4c(c5c6ccccc6n2c5c31)C(=O)N[C@@H]4O
TGI [1]: 1.16 µM
TGI [2]: 0.202 µM
TGI [3]: 15 µM
TGI [4]: 0.268 µM
TGI [5]: 0.637 µM
TGI [6]: 0.549 µM
GI50 [7]: 0.105 µM
TGI [7]: 0.3 µM and 0.42 µM
TGI [8]: 0.225 µM

CC(=O)O[C@@H]1C2C(=O)OC(=O)C2C2CCC[C@]23O[C@H]13 (stereo partly drawn)
TGI [3]: > 100 µM
TGI [4]: > 100 µM
TGI [5]: > 100 µM
TGI [6]: > 100 µM
TGI [8]: > 100 µM

COc1cc(Br)c(C=Nc2cccc3ccc(OS(=O)(=O)c4cccc([N+](=O)[O-])c4)cc23)cc1OC
TGI [3]: > 100 µM
TGI [4]: > 100 µM
TGI [6]: > 100 µM
TGI [8]: 72.9 µM

COc1ccc2c(c1)[n+]([O-])c(/C(C)=N/NC(=O)CC#N)c[n+]2[O-]
TGI [3]: > 100 µM
TGI [4]: > 100 µM
TGI [5]: > 100 µM
TGI [6]: > 100 µM
TGI [8]: > 100 µM

COC(=O)C1=C(CS(=O)c2ccccc2[N+](=O)[O-])ON(C)C1c1ccccc1 (stereo not drawn)
TGI [3]: > 100 µM
TGI [4]: > 100 µM
TGI [5]: > 100 µM
TGI [6]: > 100 µM
TGI [8]: > 100 µM

O=[N+]([O-])c1ccc2c(c1)[O][Sn]([I])([I])[O]2
GI50 [3]: > 100 µM
TGI [3]: > 100 µM
GI50 [5]: 71.1 µM
TGI [5]: > 100 µM
GI50 [8]: > 100 µM
TGI [8]: > 100 µM

O=Cc1ccc(-c2cccs2)s1
TGI [1]: > 100 µM
TGI [2]: > 100 µM
TGI [3]: > 74.9 µM
TGI [4]: > 100 µM
TGI [5]: > 100 µM
TGI [9]: > 100 µM
TGI [6]: 4.51 µM
TGI [7]: > 100 µM
TGI [8]: > 100 µM

N.N.N.N.N.N.O=N[O-].[Br-].[Co+3].[Co+3].[OH3+].[OH3+]
GI50 [3]: > 100 µM
TGI [3]: > 100 µM
GI50 [4]: 51.7 µM
TGI [4]: > 100 µM
GI50 [6]: > 100 µM
TGI [6]: > 100 µM
GI50 [8]: > 100 µM
TGI [8]: > 100 µM

S=c1nc(-c2cccnc2)[nH][nH]1
TGI [3]: > 100 µM
TGI [4]: > 100 µM
TGI [5]: > 100 µM
TGI [6]: > 100 µM
TGI [8]: > 100 µM

Nc1nc(CCC(=O)Nc2cccc(C(F)(F)F)c2)cc(-c2ccc3ccccc3c2)n1
TGI [3]: > 100 µM
TGI [4]: > 100 µM
TGI [5]: > 100 µM
TGI [6]: > 100 µM
TGI [8]: > 100 µM

N#CC(NNC(=O)c1ccccc1O)c1cccc(O)c1 (stereo not drawn)
TGI [3]: > 100 µM
TGI [4]: > 100 µM
TGI [5]: > 100 µM
TGI [6]: > 100 µM
TGI [8]: > 100 µM

Cc1ccc2c(c1)C(c1cccc3ccccc13)OC2=O (stereo not drawn)
TGI [3]: > 100 µM
TGI [4]: > 100 µM
TGI [5]: > 100 µM
TGI [6]: > 100 µM

C=C(C=O)CCCC(C)[C@@H]1CCC23CC12CCC1[C@@]2(C)CCC(OC(C)=O)C(C)(C)C2CC(OC2OC(COC(C)=O)C(O)C(O)C2O)[C@]13C (stereo partly drawn)
TGI [4]: 16.1 µM
TGI [5]: 13.3 µM
TGI [6]: 8.44 µM
TGI [8]: 3.4 µM

CC1(C)C2CCC3(C2)CS(=O)(=O)N2OC231 (stereo not drawn)
TGI [3]: 47.5 µM
TGI [4]: 32.1 µM
TGI [5]: 58.5 µM
TGI [6]: 30.6 µM
TGI [8]: 47.2 µM

O=c1ccc(=O)c2c(=O)c3ccccc3c(=O)c1=2
TGI [3]: > 100 µM
TGI [5]: > 100 µM
TGI [6]: > 100 µM
TGI [8]: > 100 µM

CCOC(=O)[C@H]1Nc2ccc(OC)cc2C2c3ccccc3CC21 (stereo partly drawn)
TGI [3]: > 100 µM
TGI [5]: > 100 µM
TGI [6]: > 100 µM
TGI [8]: > 100 µM

COC(=O)c1nc(N)[nH]c(=O)c1CCCCCc1c(C(=O)OC)nc(N)[nH]c1=O
TGI [3]: > 50 µM
TGI [4]: > 50 µM
TGI [5]: > 50 µM
TGI [6]: > 50 µM
TGI [8]: > 50 µM

C[C-](O)O.O/C(=C\[C-](O)c1ccccc1)c1ccccc1.O/C(=C\[C-](O)c1ccccc1)c1ccccc1.[Nd+3] (stereo not drawn)
GI50 [3]: 9.17 µM
TGI [3]: 44.2 µM
GI50 [5]: 3.25 µM
TGI [5]: 16.1 µM
GI50 [6]: 5.79 µM
TGI [6]: > 100 µM
